The values that follow come from patent publication US9617256B2 (priority 2007, dated 2017).

Assay [1] concerns AECO001 (ATCC25922). Briefly: MIC broth microdilution, AECO001. As to conditions: Escherichia coli. Format: cell-based, E. coli. In a few lines:
(§1)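 Inocula prepared from 0.5 McFarland suspensions (final 3×10^5–7×10^5 CFU/mL) were added to 2-fold drug dilution series in cation-adjusted Mueller-Hinton broth. Plates stood 18-24 hours at 35° C. under ambient air.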

Assay [2] has as its system AECO063 (ATCC25922 bearing an acrAB mutation). Description: microbe, parasite or virus in culture. Format: cell-based, E. coli. As to conditions: Escherichia coli, ATCC25922, read-out: MIC AECO063. In short, it runs like this:
as §1

In assay [3] the test system is APAE001 (ATCC27853). Briefly: MIC broth microdilution, APAE001. Format: cell-based, P. aeruginosa. As to conditions: Pseudomonas aeruginosa, ATCC27853, read-out: MIC APAE001, APAE001 (ATCC27853). In short, it runs like this:
as §1

The subject of assay [4] is APAE006 (strain of P. aeruginosa in which all efflux pumps are inactivated). Briefly: microbe, parasite or virus in culture. Conditions: Pseudomonas aeruginosa, read-out: MIC APAE006, APAE006, all efflux pumps inactivated. Format: cell-based. In a few lines:
(§2)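 For the efflux-deficient P. aeruginosa APAE006, one set of MICs includes polymyxin B nonapeptide at 8 micrograms per milliliter.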

Assay [5] deals with APAE006 in the presence of 8 micrograms per milliliter of polymyxin B nonapeptide. The assay is classed as cell-based, P. aeruginosa. As to conditions: APAE006 with 8 micrograms per milliliter polymyxin B nonapeptide. In short, it runs like this:
as §2

The subject of assay [6] is AABA1060 (clinical isolate of Acinetobacter baumannii). Description: MIC broth microdilution, AABA1060. The assay is classed as cell-based. Conditions: Acinetobacter baumannii, read-out: MIC AABA1060. In short, it runs like this: as §1
Assay [7] relates to ASAU001 (laboratory strain of S. aureus, ATCC29213). Description: MIC broth microdilution, ASAU001. As to conditions: Staphylococcus aureus, ATCC29213, read-out: MIC ASAU001. Format: cell-based. In short, it runs like this:
as §1

Setting [8] is: ATCC25922, read-out: MIC AECO001.
[9] abbreviates: ATCC25922, read-out: MIC AECO001 HSA AGP.

The structures appear in SMILES notation. ≈ marks a conversion by molar mass, not a printed value. Where two headings read alike, the source gives them in different places.

Consider `CC(C)(N)[C@H](NC(=O)c1ccc(C#CC#Cc2ccc(C(F)(F)F)cc2)cc1)C(=O)NO` [Example 82-26], for which the MIC is under 2 µg/mL in assay [1] (setting [8]); 16 to 64 µg/mL (≈ 36.1 to 144 µM) in assay [1] (setting [9]); under 2 µg/mL in assay [2]; 2 to 16 µg/mL (≈ 4.51 to 36.1 µM) in assay [3]; 2 to 16 µg/mL (≈ 4.51 to 36.1 µM) in assay [4]; 2 to 16 µg/mL (≈ 4.51 to 36.1 µM) in assay [6]. Moreover, the MIC in assay [7] lay within 2 to 16 µg/mL (≈ 4.51 to 36.1 µM). Besides, in assay [5], the “MIC APAE006 + PMBN” value is “A (MIC's of 2.0 μg/mL or less = A)”.
For `CC(C)CC#CC#Cc1ccc(C(=O)N[C@H](C(=O)NO)C(C)(C)N)cc1` [Example 91-22], the MIC is under 2 µg/mL in assay [1] (setting [8]); 2 to 16 µg/mL (≈ 5.63 to 45 µM) in assay [1] (setting [9]); under 2 µg/mL in assay [2]; 2 to 16 µg/mL (≈ 5.63 to 45 µM) in assay [3]; under 2 µg/mL in assay [4]; 2 to 16 µg/mL (≈ 5.63 to 45 µM) in assay [6]. Further, in assay [7], the MIC is 2 to 16 µg/mL (≈ 5.63 to 45 µM). Besides, the “MIC APAE006 + PMBN” value in assay [5] is “A (MIC's of 2.0 μg/mL or less = A)”.
As to `C[C@@H](N)[C@H](NC(=O)c1ccc(C#CC#CCCCO)cc1)C(=O)NO` [Example 137-25], the MIC was 16 to 64 µg/mL (≈ 46.6 to 186 µM) in assay [1] (setting [8]); 16 to 64 µg/mL (≈ 46.6 to 186 µM) in assay [1] (setting [9]); 2 to 16 µg/mL (≈ 5.82 to 46.6 µM) in assay [2]; 16 to 64 µg/mL (≈ 46.6 to 186 µM) in assay [3]; under 2 µg/mL in assay [4]; 16 to 64 µg/mL (≈ 46.6 to 186 µM) in assay [6]. In assay [7], the MIC lay within 16 to 64 µg/mL (≈ 46.6 to 186 µM). The “MIC APAE006 + PMBN” value in assay [5] is on record as “A (MIC's of 2.0 μg/mL or less = A)”.
As to `C[C@@H](N)[C@H](NC(=O)c1ccc(/C=C/C#CC2CC2)cc1)C(=O)NO` [Example 114-15], the MIC was 2 to 16 µg/mL (≈ 6.11 to 48.9 µM) in assay [1] (setting [8]); 16 to 64 µg/mL (≈ 48.9 to 195 µM) in assay [1] (setting [9]); under 2 µg/mL in assay [2]; under 2 µg/mL in assay [3]; under 2 µg/mL in assay [4]; 2 to 16 µg/mL (≈ 6.11 to 48.9 µM) in assay [6]. Also, the MIC in assay [7] was in the range of 16 to 64 µg/mL (≈ 48.9 to 195 µM). The “MIC APAE006 + PMBN” value in assay [5] is recorded as “A (MIC's of 2.0 μg/mL or less = A)”.
As for `CCC#CC#Cc1ccc(C(=O)N[C@H](C(=O)NO)[C@@H](C)N)cc1` [Example 91-7], the MIC was under 2 µg/mL in assay [1] (setting [8]); 2 to 16 µg/mL (≈ 6.38 to 51.1 µM) in assay [1] (setting [9]); under 2 µg/mL in assay [2]; under 2 µg/mL in assay [3]; under 2 µg/mL in assay [4]; 2 to 16 µg/mL (≈ 6.38 to 51.1 µM) in assay [6]. The MIC in assay [7] lay within 2 to 16 µg/mL (≈ 6.38 to 51.1 µM). In assay [5], the “MIC APAE006 + PMBN” value is reported as “A (MIC's of 2.0 μg/mL or less = A)”.
Consider `C[C@@H](O)[C@H](NC(=O)c1ccc(/C=C/C#Cc2cccnc2)cc1)C(=O)NO` [Example 114-13], for which the MIC in assay [1] (setting [8]) was under 2 µg/mL; in assay [1] (setting [9]), 2 to 16 µg/mL (≈ 5.47 to 43.8 µM); in assay [2] it was under 2 µg/mL; in assay [3] it was 2 to 16 µg/mL (≈ 5.47 to 43.8 µM); in assay [4] it was under 2 µg/mL; in assay [6], 2 to 16 µg/mL (≈ 5.47 to 43.8 µM). Also, the MIC in assay [7] was 16 to 64 µg/mL (≈ 43.8 to 175 µM). In addition, the “MIC APAE006 + PMBN” value in assay [5] was “A (MIC's of 2.0 μg/mL or less = A)”.
As for `CC(C)(O)[C@H](NC(=O)c1ccc(C#CC#Cc2ccc(F)cc2)cc1)C(=O)NO` [Example 82-19], the MIC is under 2 µg/mL in assay [1] (setting [8]); 2 to 16 µg/mL (≈ 5.07 to 40.6 µM) in assay [1] (setting [9]); under 2 µg/mL in assay [2]; 2 to 16 µg/mL (≈ 5.07 to 40.6 µM) in assay [3]; under 2 µg/mL in assay [4]; under 2 µg/mL in assay [6]. For the same compound, in assay [7], the MIC lay in the range of 16 to 64 µg/mL (≈ 40.6 to 162 µM). The “MIC APAE006 + PMBN” value in assay [5] is listed as “A (MIC's of 2.0 μg/mL or less = A)”.
With `C[C@@H](N)[C@H](NC(=O)c1ccc(C#Cc2ccc(COCC(F)(F)F)cc2)cc1)C(=O)NO` [Example 124-1, N-((1S,2R)-2-Amino-1-hydroxycarbamoyl-propyl)-4-[4-(2,2,2-trifluoro-ethoxymethyl)-phenylethynyl]-benzamide], the MIC in assay [1] (setting [8]) was under 2 µg/mL; in assay [1] (setting [9]), 2 to 16 µg/mL (≈ 4.45 to 35.6 µM); in assay [2], under 2 µg/mL; in assay [3], 2 to 16 µg/mL (≈ 4.45 to 35.6 µM); in assay [4] it was under 2 µg/mL; in assay [6] it was 16 to 64 µg/mL (≈ 35.6 to 142 µM). Moreover, in assay [7], the MIC is 16 to 64 µg/mL (≈ 35.6 to 142 µM). The “MIC APAE006 + PMBN” value in assay [5] is listed as “A (MIC's of 2.0 μg/mL or less = A)”.
Turning to `CC(C)(N)[C@H](NC(=O)c1ccc(/C=C/C#Cc2ccc(CNC3CC3)cc2)cc1)C(=O)NO` [Example 113-6], the MIC in assay [1] (setting [8]), in assay [1] (setting [9]), in assay [2], in assay [3], in assay [4] and in assay [6] was under 2 µg/mL each time. For the same compound, in assay [7], the MIC is 16 to 64 µg/mL (≈ 35.8 to 143 µM). The “MIC APAE006 + PMBN” value in assay [5] is recorded as “A (MIC's of 2.0 μg/mL or less = A)”.
